pKi: −log10 of the molar value. Values joined by “and” are separate entries in the source; they are usually repeats but may differ in a detail not shown here. Equal entries are not always repeated.
Tests used:
DNA-PK = DNA-PK (Homo sapiens, UniProt P78527); test: DNA-PK inhibition assay (standard radiometric 33P-ATP kinase assay); type: biochemical; details: 100 μM ATP, approx. 6 nM DNA-PK
How it was run: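 Radiometric transfer of 33P from 33P-ATP (100 μM ATP) to a DNA-PK peptide (0.8 mg/mL), with ~6 nM enzyme in pH 7.5 HEPES, 10 mM MgCl2, 10 μg/mL sheared dsDNA. Stopped with phosphoric acid after 45 min and counted on filter plates. Ki fitted to a competitive tight-binding model.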

CD34+ cells = test: HDR gene editing rates in CD34+ cells, spCAS9 mRNA, AAVS1 (Example 20); type: cell-based, human; details: AAVS1 sgRNA, AAVS1 Non-PAM ssODN, 72 hs, FIGS. 8-10
Description: To investigate the effect of DNA-PK inhibitors on HDR gene editing rates, CD34^+ cells were electroporated with spCAS9 mRNA, AAVS1 sgRNA and AAVS1 Non-PAM ssODN and then incubated with different concentrations of Compounds 666, 661, 663 or left untreated (Control). Gene editing rates were determined by using TIDE assay 72 hs after electroporation. Gene editing rates were expressed in percentages and classified as HDR and NHEJ. Cell survival rates are shown in percentages where control cells were set as 100%.

mPB CD34+ cells [1] = test: CD34+ cell viability (Cell Titer Glo), Example 19; type: cell-based, human; details: untreated control = 100
Description: (§1) CD34^+ cells were electroporated two days post thaw. The following conditions were used for electroporation: 2.0×E6 cells, 15 μg Cas9 protein (Feldan), 15 μg sgRNA, 1 μM of ssODN in 100 μl of P3 electroporation buffer using program CA-137. Electroporated cells were transferred by equally dividing them into eight wells of a 24-well plate, each well containing various concentrations of DNA-PK inhibitors. Cells were incubated at 37° C. in a 5% CO2 incubator for two days and evaluated for cell viability and gene editing.
CD34^+ HSPCs cell survival was measured using Cell Titer Glo (CTG) reagent (Promega). 100 μl of cell suspension was mixed with 100 μl complete CTG reagent. The chemiluminescent signal was measure using a luminometer and % of viable cells was calculated as compared to control cells (cells not treated with the DNA-PK inhibitors).
(§2) mPB CD34^+ cells were electroporated with RNP (spCAS9 protein+NAV1.7 sgRNA) and NAV1.7 Non-PAM ssODN. Cells were then incubated with various concentrations of Compounds 661, 663 and 666. Experiments were done as described in the methods above, except lower concentrations of sgRNA (5 μg) and ssODN (0.2 μM) were used. Gene editing rates were determined by using TIDE assay 48 h after electroporation. Gene editing rates were expressed in percentages and classified as HDR and NHEJ.

mPB CD34+ cells [2] = test: Gene editing rates in CD34+ cells, Example 19 (lower sgRNA and ssODN); type: cell-based, human; details: for % HDR: NAV1.7, 48 h
Description: Primary human mobilized peripheral blood (mPB) CD34^+ hematopoietic stem and progenitor cells (HSPCs) were purchased from Hemacare or AllCells. Cells were thawed, washed and resuspended in complete medium comprised of serum free medium CellGro SCGM (CellGenix) and supplemented with cytokine mix (300 ng/mL SCF, 300 ng/mL Flt3 L, 100 ng/mL TPO, 60 ng/ml IL-3) at a density of 1-3×10^5 cells per mL and incubated at 37° C./5% CO2 incubator for 48 hours prior to electroporation.
as §1
Genomic DNA was isolated by incubating cells with 50 ul DNA Quickextract solution (Epicentre) per well of 96 well plate for 30 min at 37° C. Cellular extract was mixed and transferred into a PCR plate and then incubated for 6 min at 65° C. and 2 min at 98° C. PCR reactions were carried out with 1 ul of Genomic DNA containing solution by using AccuPrime™ Pfx DNA Polymerase (Thermofisher, 12344024). PCR conditions were 4 min at 94° C. (1×), followed by 15 s at 94° C., 15 s at 60° C. and 1 min at […]. The PCR products were purified and then Sanger sequenced by GENEWIZ. The following primer pairs spanning the target site were used for PCR (FW, forward; RV, reverse). Primers used by Sanger Sequencing are indicated by an asterisk (*): […]
Each sequence chromatogram was analyzed using TIDE (Tracking of Indels by Decomposition) software (http://tide.nki.nl) (See also Brinkman et al., Nucleic Acids Research, Volume 42, Issue 22, 16 Dec. 2014, Pages e168). Mock-electroporated samples were used as the reference sequence, and parameters were set to an indel size of 30 nt, and the decomposition window was set to cover the largest possible window with high-quality traces. Total indel (insertion and deletions) rates were obtained directly from TIDE plots. HDR rates were the percentage of events with an insertion of 10 Nucleotides. NHEJ Rates were calculated as Total Indel rate−HDR rate. GraphPad Prism 7 software was used to make Graphs and to calculate the all Statistical information.
as §2

| SMILES | pKi (DNA-PK) | HDR rates (CD34+ cells) | Viability (mPB CD34+ cells [1]; Donor A, 1.11 μM) | Viability (mPB CD34+ cells [1]; Donor A, 3.33 μM) | Viability (mPB CD34+ cells [1]; Donor A, 10.00 μM) | Viability (mPB CD34+ cells [1]; Donor D, 1.11 μM) | Viability (mPB CD34+ cells [1]; Donor D, 3.33 μM) | Viability (mPB CD34+ cells [1]; Donor D, 10.00 μM) | % NHEJ (mPB CD34+ cells [2]; Donor A, 0.37 μM) [%] | % HDR (mPB CD34+ cells [2]; Donor A, 0.37 μM) [%] | % Indels (mPB CD34+ cells [2]; Donor A, 1.11 μM) [%] | % NHEJ (mPB CD34+ cells [2]; Donor A, 1.11 μM) [%] | % WT (mPB CD34+ cells [2]; Donor A, 1.11 μM) [%] | % HDR (mPB CD34+ cells [2]; Donor A, 1.11 μM) [%] | % Indels (mPB CD34+ cells [2]; Donor A, 3.33 μM) [%] | % WT (mPB CD34+ cells [2]; Donor A, 3.33 μM) [%] | % HDR (mPB CD34+ cells [2]; Donor A, 3.33 μM) [%] | % NHEJ (mPB CD34+ cells [2]; Donor A, 10 μM) [%] | % Indels (mPB CD34+ cells [2]; Donor A, 10.00 μM) [%] | % WT (mPB CD34+ cells [2]; Donor A, 10.00 μM) [%] | further results |
| --- | --- | --- | --- | --- | --- | --- | --- | --- | --- | --- | --- | --- | --- | --- | --- | --- | --- | --- | --- | --- | --- |
| CNC(=O)c1ccnc(N[C@H]2CC[C@@H](Oc3cc(N4CCOCC4)cc4nccnc34)CC2)n1 [Compound 661] | 9.00 | improve HDR rates | 60 | 47 | 6 | 62 | 75 | 11 | 66.2 | 21.8 | 59.4 | 59.4 | 4.2 | 31.7 | 57.8 | 5.1 | 32.2 | 47 | 47 | 18.9 | % HDR (mPB CD34+ cells [2]; Donor A, 10 μM): 28%; % NHEJ (mPB CD34+ cells [2]; Donor D, 0.37 μM): 78.1%; % HDR (mPB CD34+ cells [2]; Donor D, 0.37 μM): 6.9%; % Indels (mPB CD34+ cells [2]; Donor D, 1.11 μM): 77.5%; % NHEJ (mPB CD34+ cells [2]; Donor D, 1.11 μM): 77.5%; % WT (mPB CD34+ cells [2]; Donor D, 1.11 μM): 6%; % HDR (mPB CD34+ cells [2]; Donor D, 1.11 μM): 10.8%; % Indels (mPB CD34+ cells [2]; Donor D, 3.33 μM): 76.7%; % WT (mPB CD34+ cells [2]; Donor D, 3.33 μM): 6.4%; % HDR (mPB CD34+ cells [2]; Donor D, 3.33 μM): 11.5%; % NHEJ (mPB CD34+ cells [2]; Donor D, 10 μM): 64.2%; % Indels (mPB CD34+ cells [2]; Donor D, 10.00 μM): 64.2%; % WT (mPB CD34+ cells [2]; Donor D, 10.00 μM): 11.1%; % HDR (mPB CD34+ cells [2]; Donor D, 10 μM): 13.4% |
| CNC(=O)c1ccnc(N[C@H]2CC[C@@H](Oc3cc(N4CCOCC4)cc4nonc34)CC2)n1 [Compound 666, N-methyl-2-((4-((6-morpholinobenzo[c][1,2,5]oxadiazol-4-yl)oxy)cyclohexyl)amino)pyrimidine-4-carboxamide] | 9.00 and > 7.00 | improve HDR rates | 65 | 42 | 36 | 76 | 69 | 34 | 67.3 | 23.2 | 58.8 | 58.8 | 3.5 | 31.5 | 56.5 | 5.8 | 32.4 | 52 | 52 | 9.7 | % HDR (mPB CD34+ cells [2]; Donor A, 10 μM): 33.6%; % NHEJ (mPB CD34+ cells [2]; Donor D, 0.37 μM): 79.2%; % HDR (mPB CD34+ cells [2]; Donor D, 0.37 μM): 5.5%; % Indels (mPB CD34+ cells [2]; Donor D, 1.11 μM): 77.5%; % NHEJ (mPB CD34+ cells [2]; Donor D, 1.11 μM): 77.5%; % WT (mPB CD34+ cells [2]; Donor D, 1.11 μM): 6.2%; % HDR (mPB CD34+ cells [2]; Donor D, 1.11 μM): 11%; % Indels (mPB CD34+ cells [2]; Donor D, 3.33 μM): 73.8%; % WT (mPB CD34+ cells [2]; Donor D, 3.33 μM): 5.3%; % HDR (mPB CD34+ cells [2]; Donor D, 3.33 μM): 14.3%; % NHEJ (mPB CD34+ cells [2]; Donor D, 10 μM): 69%; % Indels (mPB CD34+ cells [2]; Donor D, 10.00 μM): 69%; % WT (mPB CD34+ cells [2]; Donor D, 10.00 μM): 11.8%; % HDR (mPB CD34+ cells [2]; Donor D, 10 μM): 13.7% |
